In one data set the test system is H1975 xenografts. Kind of data set: H1975 NSCLC xenograft tumor growth. The format is in vivo, nude mice. The conditions noted are these: 5 mg/kg/d iv, 5 days per week, compared to CS3M. As to the method:
Based on the in vitro effects of CS3D, antitumor effects were evaluated in mice harboring established NSCLC xenografts (10 tumors/group). When tumors reached 200 mm3, mice were given daily intravenous injections (tail vein) of CS3D or CS3M (5 mg/kg/d), 5 days per week, and tumor growth was monitored for 14-20 days. CS3D caused a significant and robust tumor growth inhibition in 201T- and H1975-derived xenografts compared to treatment with CS3M.
FIGS. 7A and 7B show CS3D suppresses NSCLC xenograft tumor growth. Intravenous delivery of CS3D inhibits tumor growth in both wild-type (FIG. 7A, 201T) and mutant EGFR T790M (FIG. 7B, H1975) xenografts. Approximately 1×10^6 cells were inoculated subcutaneously in the flanks of nude mice. Following the development of palpable tumors (about […]), mice were randomized and given daily injections of either CS3D or CS3M (5 mg/kg/day; 10 tumors/group). Experiments were done twice as biological replicates. Tumor volumes were recorded every other day while animal weights were also monitored during the course of the treatment. […]
All studies were approved by the University of Minnesota Institutional Animal Care and Use Committee and were carried out in accordance with institutional guidelines for animal care. […] Volumes were calculated from the formula V=(Length×Width^2)/2. […]

Data set [1] addresses T1, pSTAT3-ubiquitin complexes in H1975 cells (Homo sapiens, UniProt P40763).
T1 construct: Post-transfection with either 100 nM CS3D or CS3M, H1975 were lysed in IP lysis buffer; endogenous in cells; host or cells: H1975
Kind of data set: p-STAT3 immunoprecipitation and ubiquitin immunoblot. It counts as cell-based. The conditions noted are these: H1975, 100 nM, 24 hr post-transfection. In general terms: A western blot detects proteins with antibodies after separation by electrophoresis.

The subject of data set [2] is Myc and Bcl-xL mRNA in NSCLC cells. To be noted: 300 nM one transfection, 10 ng/ml EGF, 1 hr after EGF.
The test system of data set [3] is Ki-67, p-STAT3, NF-κB in H1975 xenografts. In words: IHC of H1975 xenografts after 5 daily iv injections. It counts as in vivo, nude mice. As to the method: Because tumors treated for several weeks with the STAT3 decoy were largely composed of debris (as illustrated in FIG. 11), xenografts were examined after only 5 daily tail vein injections to determine what cellular changes were induced prior to collapse of the intracellular tumor structure. […] Tumors derived from H1975 xenografs were analyzed by immunohistochemical staining for p-STAT3 after 5 daily iv injections of either STAT3 decoy or mutant decoy. […] This effect is quantified in FIG. 9B.
Images were captured at 40× magnification. A shift from 41% of cells was observed and scored as high-grade staining with CS3M treatment to 13% with high-grade staining in the presence of CS3D, with corresponding increases in moderate- and low-grade staining in the STAT3 decoy treated group (FIG. 12B). […] Bright field images were captured at 40× magnification. Frequency of high-grade staining for p-STAT3 differed between CS3D and CS3M treatment groups (23% in CS3D-treated and 51% in CS3M treated, with corresponding increase in low-grade staining in presence of the active decoy (FIG. 9B). Significant degradation of p-STAT3 protein was detected by IHC in tumors was observed after treatment with CS3D. Percent of high staining fields was reduced from 48% to 22% while percent of fields with low staining increased, P<0.001 (FIG. 9B).
Immunohistochemical analysis: Tumors were excised for immunohistochemical (IHC) staining; 5-μm (micron) sections were cut from formalin-fixed paraffin-embedded tissue blocks, deparaffinized and rehydrated using successive washes of xylene followed by ethanol. Antigen retrieval was performed in a microwave oven (for 20 minutes) in an unmasking solution containing sodium citrate buffer followed by peroxidase blocking in 3% hydrogen peroxide. The sections were incubated in ABC blocking buffer (Vector laboratories Inc, Burlingame, California) for 1 hour at room temperature. Sections were then stained with H&E (hematoxylin and eosin) or subjected to sequential incubations with different primary antibodies and peroxidase-conjugated goat anti-rabbit secondary antibodies. The following primary antibodies were used (at the indicated dilutions): cleaved caspase-3 (#9664, Cell Signaling, 1:300), p-STAT3 (#9145, Cell Signaling, 1:400), Ki67 (#ab15580, Abcam, 1:1000). Sections were developed with DAB and counterstained with hematoxylin. Bright field microscopy was performed using Leica DM 4000 B LED microscope and images were captured at 20× and 40× magnification using LASv4.7 software. IHC analysis was done as a blinded study with 100 images from each treatment group graded as low, moderate, or high. Staining was graded as low (<30% positive cells per field, scored as 1), moderate (30-60% positive cells per field, scored as 2) or high (>60% positive cells per field, scored as 3).

The record followed here is patent US11932850B2, “Cancer chemoprevention with STAT3 blockers” (Jill M. Siegfried, LLC, priority 2018, dated 2024).

A value given as a limit tells only on which side of the number the result lay.

T1 sequence (P40763 2-770 limits assumed, one chain of several): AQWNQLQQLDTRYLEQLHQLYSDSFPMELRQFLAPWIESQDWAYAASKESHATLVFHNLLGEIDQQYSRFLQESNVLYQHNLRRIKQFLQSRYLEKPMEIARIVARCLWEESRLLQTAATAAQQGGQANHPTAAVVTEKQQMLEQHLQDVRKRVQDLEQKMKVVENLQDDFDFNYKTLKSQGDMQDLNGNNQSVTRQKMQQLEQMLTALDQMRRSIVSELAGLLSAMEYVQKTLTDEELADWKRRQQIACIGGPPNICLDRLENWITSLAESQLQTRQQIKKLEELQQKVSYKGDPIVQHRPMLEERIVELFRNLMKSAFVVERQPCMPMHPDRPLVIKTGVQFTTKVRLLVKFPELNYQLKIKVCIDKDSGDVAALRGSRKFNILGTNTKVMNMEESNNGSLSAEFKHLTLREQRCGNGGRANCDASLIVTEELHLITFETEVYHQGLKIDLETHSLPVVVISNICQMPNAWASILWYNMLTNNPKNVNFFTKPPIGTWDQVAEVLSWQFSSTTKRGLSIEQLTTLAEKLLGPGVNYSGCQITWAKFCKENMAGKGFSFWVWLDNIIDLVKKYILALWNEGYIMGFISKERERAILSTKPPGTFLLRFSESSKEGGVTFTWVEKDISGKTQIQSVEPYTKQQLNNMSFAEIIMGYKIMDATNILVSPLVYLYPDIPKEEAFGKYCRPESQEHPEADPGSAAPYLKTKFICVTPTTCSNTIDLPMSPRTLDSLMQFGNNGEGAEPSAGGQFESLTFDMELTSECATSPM

On to “CS3D (DNA GATTTACGGGAAATGCSCATTTCCC; cyclic decoy with two hexaethylene glycol linkers, further chemistry not given here)”, for which, in the data set on H1975 xenografts, the “reduction in tumor growth (tumor volume)” value came to 81.7%. In addition, the “ratio of pSTAT3-ubiquitin complex to STAT3 (densitometry)” value in data set [1] is recorded as 0.95. Also, in data set [2], the “reduction of Bcl-Xl mRNA expression in response to EGF” value is recorded as not below 60% and the “reduction of c-Myc mRNA expression in response to EGF” value is not below 60%. Further, the Ki-67 high-grade staining in data set [3] (H1975 xenografts, 5 daily injections) is listed as 13%. Moreover, the “frequency of high-grade staining for p-STAT3” value in data set [3] (H1975 xenografts, 5 daily iv injections) came to 23%. In addition, the “percent of high staining fields for p-STAT3” value in data set [3] (H1975 xenografts, second statement in b134 (FIG. 9B)) came to 22%. In addition, the “induction of apoptosis at early time point” value in data set [3] (after 5 daily injections (not shown)) is “no induction of apoptosis”. Besides, the NF-κB nuclear protein result in data set [3] (after five days of treatment) is on record as “No change”.
